Measured values as given in patent publication US20230000820A1, “SOLID DOSAGE FORM OF N-1-PYRROLIDINE-N-5-(3-TRIFLUOROMETHOXY)PHENYL BIGUANIDE AND USES THEREOF” (ImmunoMet Therapeutics, Inc., priority 2021, published 2023).
Read-outs that look alike come from different tables or passages of the source.

Columns and labels:
[1] = tested on: human subjects; conditions: in vivo
Procedure: (§1) A phase 1 clinical study investigating the safety and tolerability of compound 1 in human subjects was conducted. Healthy volunteers were administered either an uncoated tablet at 100 mg QD (cohort 1, N=6), 200 mg QD (cohort 2, N=6), or 400 mg QD (cohort 3, N=6), or a coated tablet at 400 mg (cohort 4, N=6) or 800 mg QD (cohort 5, N=6), and the compound 1 plasma concentration achieved by the subjects was recorded over time (FIGS. 2 and 4). Cancer patients were administered either an uncoated tablet at 100 mg QOD (cohort 1, N=3), 200 mg QOD (cohort 2, N=3), 400 mg QOD (cohort 3, N=3), 800 mg QOD (cohort 4, N=3), or 1200 mg QOD (cohort 5, N=3), or were administered an uncoated tablet at 800 mg QD (cohort 6, N=3) or 1200 mg QD (cohort 7, N=4), and the compound 1 plasma concentration achieved by the subjects was recorded over time (FIGS. 3 and 4). A phase 1 clinical study investigating the safety and tolerability of compound 1 in human subjects was conducted. 22 subjects with solid tumors were enrolled and split into seven cohorts. Cohort 1 received 100 mg QOD, cohort 2 received 200 mg QOD, cohort 3 received 400 mg QOD, cohort 4 received 800 mg QOD, cohort 5 received QOD, cohort 6 received 1,200 mg QOD, cohort 6 received 800 mg QD, and cohort 7 received 1,200 mg QD.

[2] = tested on: Beagle dogs; assay: Clinical Observation/Cageside Observation of dogs treated with compound 1 (Example 1); assay type: in vivo
Procedure: (§2) Animals were dosed with N-1-pyrrolidine-N-5-(3-trifluoromethoxy)phenyl biguanide acetate salt as specified in Table 1. Dosages were freshly prepared on the day of dosing. The PO (per os) solution was DI water. The enteric capsule was HMPC enteric-coated capsules. The test substance was prepared and used immediately before administration. The preparation method was to weigh N-1-pyrrolidine-N-5-(3-trifluoromethoxy)phenyl biguanide and add sterile distilled water. The mixture was titrated to final volumes by mixing via sonication for 2 minutes and vortexing for 5 minutes. During the administration time, the preparation was handled at room temperature. All animals for IV administration had free access to food and water. Animals for PO were fasted overnight prior to dosing and were fed approximately 2 hours after dosing. Group 2 shared the same 2 animals. Animals in PO_A arm were dosed first. After 2 days washout period, animals in PO_B arm were dosed. After 2 days washout period, animals in PO_C arm were dosed. Clinical observations of animals treated with compound 1 were recorded as specified in Tables 3-5.

[3] = design: species or system Beagle dogs; conditions: dog, in vivo, po
Procedure: as §2
Plasma for both IV and PO dosing was sampled from animals pre-dose, and 5 minutes, 15 minutes, 30 minutes, 1 hour, 2 hours, 4 hours, 8 hours, and 24 hours post dose.
Samples were collected via venipuncture of peripheral veins except the dosing vein. 0.3 mL of blood was drawn per time point. The anticoagulant used was potassium EDTA. Whole blood samples were gently inverted several times to ensure anticoagulation then placed on wet ice prior to centrifugation. Within 30 minutes of collection, the samples were centrifuged at approximately 2000×g (force) for 10 minutes at 2 to 8° C. to obtain plasma. The resultant plasma samples were immediately separated divided into 2 aliquots (˜[…] each) and transferred to cryogenic vial. Samples were maintained on wet ice throughout processing and stored in a freezer at −75±15° C. prior to analysis.
The standard curve was run in duplicate with a minimum of six standards, and a minimum of five standards and the LLOQ should fall within ±20% of the nominal value. Verapamil and dexamethasone were normally used as internal standards. […] A minimum of duplicate QC's at three concentrations (low, mid, and high QC) were incorporated into each run with the low QC no more than 3×LLOQ, the mid QC around the middle of the curve, and the high QC should be near the ULOQ (minimally 80% but less than 100% of the value of the highest standard) for the run and the mean value should be within ±20% of the theoretical value. The results of the QC's provide the basis for accepting or rejecting the run. At least 67% or four of six QC's should be within 20% of their respective nominal values; 33% of the QC's (not replicates of the same concentration) can fall outside 20% of nominal value. The simplest model that adequately describes the concentration-response relationship should be used. Linear or quadratic regression can be used. Weighting was 1/x or 1/x2.
Concentrations of Test Article in the plasma samples were analyzed using a LC-MS/MS method. WinNonlin (Phoenix™, version 6.1) or other similar software will be used for pharmacokinetic calculations. The following pharmacokinetic parameters were be calculated, whenever possible from the plasma concentration versus time data: PO administration: T1/2, Cmax, Tmax, MRTinf, AUCinf, AUClast, F%, Number of Points for Regression (FIG. 1). […]

[4] = tested on: human subjects; conditions: in vivo; remark: listed apart in the source
Procedure: as §1, with “4).” for “4). A phase 1 clinical study investigating the safety and tolerability of compound 1 in human subjects was conducted. 22 subjects with solid tumors were enrolled and split into seven cohorts. Cohort 1 received 100 mg QOD, cohort 2 received 200 mg QOD, cohort 3 received 400 mg QOD, cohort 4 received 800 mg QOD, cohort 5 received QOD, cohort 6 received 1,200 mg QOD, cohort 6 received 800 mg QD, and cohort 7 received 1,200 mg QD.”

## N=C(NC(=N)N1CCCC1)Nc1cccc(OC(F)(F)F)c1 [compound 1, N-1-pyrrolidine-N-5-(3-trifluoromethoxy)phenyl biguanide]
[1]
  Adverse events reported, character: primarily GI, low-grade, monitorable, manageable, and reversible
  Dose limiting toxicities: no dose limiting toxicities
  Dose suggested as suitable for phase 2 studies: 800 mg QD
  Gastrointestinal adverse events: Low-grade gastrointestinal adverse events were prominent
[2]; PO A, HPMC Enteric Coating Capsule, vs Initial Formulation and Dosing (PO B)
  Notes: tolerability: Improved
[2]; PO C, Zofran given prior to compound 1 dosing
  Notes: tolerability: no difference
[2]; dog, in vivo
  Loose feces observed, timepoint: d. Loose feces was observed from POC-4(8319440) at 8 h timepoint
[2]; dog, in vivo, 100 mg/kg
  Comment present: No
  Discoloration: No
  Dyspnea (labored breathing): No
  Emesis observed, timepoint: c. “Loose feces” and “emesis” were observed from POA-4(8319440) at 4 h timepoint
  Feces with abnormal content: No
  Few feces: No
  Frothy: No
  Loose feces: Yes(f)
  Reduced food intake: No
  Soft Stool: No
  Soft stool observed, timepoint: f. Soft stool was observed from POA-3(8310744) and POA-4(8319440) at 24 h timepoint
  Some broken capsule found in the loose feces, timepoint: b. Some broken capsule was found in the loose feces at 30 min timepoint from POA-3
  Temperature Drop: No
  Temperature Rise: No
  Torpidity: No
  Tremor (slight): No
  Uncoordinated movement: No
  Weight drop: No
[2]; dog, in vivo, iv, 10 mg/kg
  Comment present: No
  Diarrhea: No
  Discoloration: No
  Dyspnea (labored breathing): No
  Feces with abnormal content: No
  Few feces: No
  Frothy: No
  Loose feces: No
  Reduced food intake: No
  Soft Stool: No
  Temperature Drop: No
  Temperature Rise: No
  Torpidity: No
  Tremor (slight): No
  Uncoordinated movement: No
  Weight drop: No
[3]
  Notes: AUC: Improved AUC
  Notes: Bioavailability: Improved
  Notes: PK: no difference in PK
[3]; 100 mg/kg
  AUCInf: 10750 ng·h/mL
  T1/2: 6.65 h
[4]
  Gastrointestinal adverse events: Low-grade gastrointestinal adverse events were prominent
